In ChEMBL document CHEMBL1201862, “PubChem BioAssay data set” (2004):
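Test compounds were applied to cells in 96-well plates for 48 hours at 5 doses. GI50: concentration for 50% inhibition of growth.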 Active and inactive are the calls of the source. No stated cut-off is given here; in the data, active = GI50 up to about 1.1 µM and inactive = higher.

Columns and labels:
Assay in all cases: growth of human tumour cells (NCI), 48 h
[1] = system: LOX IMVI
[2] = system: HCT-116
[3] = system: OVCAR-8
[4] = system: UACC-257
[5] = system: SF-295
[6] = system: DLD-1
[7] = system: NCI-H460
[8] = system: COLO 205
[9] = system: M14
[10] = system: Malme-3M
[11] = system: UACC-62
[12] = system: OVCAR-3
[13] = system: RXF 393
[14] = system: A549
[15] = system: IGROV-1
[16] = system: SN12C
[17] = system: DMS-273
[18] = system: EKVX
[19] = system: SNB-19
[20] = system: SNB-75
[21] = system: KM12
[22] = system: U-251
[23] = system: SW-620
[24] = system: HT-29
[25] = system: DMS-114
[26] = system: HOP-62
[27] = system: NCI-H23
[28] = system: SF-539
[29] = system: HCT-15
[30] = system: M19-MEL
[31] = system: TK-10
[32] = system: UO-31
[33] = system: MOLT-4
[34] = system: ACHN
[35] = system: XF498
[36] = system: SK-MEL-28
[37] = system: K562
[38] = system: NCI-H522
[39] = system: 786-0
[40] = system: HL-60
[41] = system: CCRF-CEM
[42] = system: RPMI-8226
[43] = system: HOP-18
[44] = system: SK-OV-3
[45] = system: NCI-H226
[46] = system: KM-20L2
[47] = system: OVCAR-5
[48] = system: HCC 2998
[49] = system: SNB-78
[50] = system: OVCAR-4
[51] = system: CAKI-1
[52] = system: NCI/ADR-RES
[53] = system: SF-268
[54] = system: SK-MEL-2
[55] = system: SK-MEL-5
[56] = system: A498
[57] = system: MCF7
[58] = system: HOP-92
[59] = system: LXFL 529
[60] = system: SR

Compound: Nc1nc2c(c(=O)[nH]1)NC(CO)CN2 (stereo not given)
- GI50 [1]: 19.2 µM (inactive)
- GI50 [2]: 32.7 µM (inactive)
- GI50 [3]: 71 µM (inactive)
- GI50 [4]: 24.3 µM (inactive)
- GI50 [5]: 89.5 µM (inactive)
- GI50 [6]: > 100 µM (inactive)
- GI50 [7]: > 100 µM (inactive)
- GI50 [8]: > 100 µM (inactive)
- GI50 [9]: > 100 µM (inactive)
- GI50 [10]: > 100 µM (inactive)
- GI50 [11]: 84.7 µM (inactive)
- GI50 [12]: > 100 µM (inactive)
- GI50 [13]: > 100 µM (inactive)
- GI50 [14]: > 100 µM (inactive)
- GI50 [15]: > 100 µM (inactive)
- GI50 [16]: > 100 µM (inactive)
- GI50 [17]: > 100 µM (inactive)
- GI50 [18]: > 100 µM (inactive)
- GI50 [19]: > 100 µM (inactive)
- GI50 [20]: > 100 µM (inactive)
- GI50 [21]: > 100 µM (inactive)
- GI50 [22]: > 100 µM (inactive)
- GI50 [23]: 37.9 µM (inactive)
- GI50 [24]: 44.2 µM (inactive)
- GI50 [25]: 66.8 µM (inactive)
- GI50 [26]: > 100 µM (inactive)
- GI50 [27]: > 100 µM (inactive)
- GI50 [28]: > 100 µM (inactive)
- GI50 [29]: > 100 µM
- GI50 [30]: 63.2 µM (inactive)
- GI50 [31]: > 100 µM (inactive)
- GI50 [32]: > 100 µM (inactive)
- GI50 [33]: 37.1 µM (inactive)
- GI50 [34]: 79.4 µM (inactive)
- GI50 [35]: 84.9 µM (inactive)
- GI50 [36]: > 100 µM (inactive)
- GI50 [37]: 51.3 µM (inactive)
- GI50 [38]: > 100 µM (inactive)
- GI50 [39]: > 100 µM (inactive)
- GI50 [40]: > 100 µM (inactive)
- GI50 [41]: 29.9 µM (inactive)
- GI50 [42]: > 100 µM (inactive)
- GI50 [43]: > 100 µM (inactive)
- GI50 [44]: > 100 µM (inactive)
- GI50 [45]: > 100 µM (inactive)

Compound: O=C(O)c1ccccc1/N=C/c1ccc(N(CCCl)CCCl)cc1
- GI50 [1]: > 100 µM (inactive)
- GI50 [2]: > 100 µM (inactive)
- GI50 [3]: > 100 µM (inactive)
- GI50 [4]: > 78 µM (inactive)
- GI50 [5]: > 100 µM (inactive)
- GI50 [46]: > 100 µM (inactive)
- GI50 [6]: > 100 µM (inactive)
- GI50 [7]: 31.5 µM (inactive)
- GI50 [8]: > 100 µM (inactive)
- GI50 [10]: > 100 µM (inactive)
- GI50 [47]: > 100 µM (inactive)
- GI50 [48]: > 100 µM (inactive)
- GI50 [11]: 5.74 µM (inactive)
- GI50 [12]: > 100 µM (inactive)
- GI50 [13]: > 48.3 µM (inactive)
- GI50 [14]: > 100 µM (inactive)
- GI50 [15]: > 100 µM (inactive)
- GI50 [16]: > 85.5 µM (inactive)
- GI50 [17]: 81.1 µM (inactive)
- GI50 [18]: 64.1 µM (inactive)
- GI50 [19]: > 100 µM (inactive)
- GI50 [20]: > 100 µM (inactive)
- GI50 [21]: > 100 µM (inactive)
- GI50 [49]: > 82.8 µM (inactive)
- GI50 [22]: 78 µM (inactive)
- GI50 [23]: > 100 µM (inactive)
- GI50 [24]: > 100 µM (inactive)
- GI50 [50]: > 100 µM (inactive)
- GI50 [26]: 1.31 µM (inactive)
- GI50 [51]: 9.75 µM (inactive)
- GI50 [52]: > 100 µM (inactive)
- GI50 [27]: 47.6 µM (inactive)
- GI50 [28]: > 66.5 µM (inactive)
- GI50 [29]: > 100 µM
- GI50 [53]: > 72.4 µM (inactive)
- GI50 [30]: > 100 µM (inactive)
- GI50 [32]: > 65.2 µM (inactive)
- GI50 [54]: > 100 µM (inactive)
- GI50 [33]: 36.6 µM (inactive)
- GI50 [35]: 0.01 µM (active)
- GI50 [36]: > 100 µM (inactive)
- GI50 [37]: > 100 µM (inactive)
- GI50 [38]: > 100 µM (inactive)
- GI50 [55]: > 100 µM (inactive)
- GI50 [56]: > 40.5 µM (inactive)
- GI50 [40]: 29.4 µM (inactive)
- GI50 [57]: > 84.7 µM (inactive)
- GI50 [41]: > 80.7 µM (inactive)
- GI50 [42]: > 100 µM (inactive)
- GI50 [43]: > 100 µM (inactive)
- GI50 [44]: > 91.2 µM (inactive)
- GI50 [58]: > 100 µM (inactive)

Compound: Cc1cc([N+](=O)[O-])ccc1Sc1c2ccccc2nc2ccccc12
- GI50 [1]: 20 µM (inactive)
- GI50 [2]: 22.5 µM (inactive)
- GI50 [3]: 29.1 µM (inactive)
- GI50 [4]: 29.4 µM (inactive)
- GI50 [5]: 39.4 µM (inactive)
- GI50 [46]: 31.4 µM (inactive)
- GI50 [6]: 25.4 µM (inactive)
- GI50 [7]: 32 µM (inactive)
- GI50 [8]: 39.9 µM (inactive)
- GI50 [9]: 32.6 µM (inactive)
- GI50 [10]: > 100 µM (inactive)
- GI50 [47]: > 100 µM (inactive)
- GI50 [48]: 25.4 µM (inactive)
- GI50 [11]: 25.1 µM (inactive)
- GI50 [12]: 41.4 µM (inactive)
- GI50 [13]: 57.5 µM (inactive)
- GI50 [14]: 64.6 µM (inactive)
- GI50 [15]: 28.4 µM (inactive)
- GI50 [16]: 39.6 µM (inactive)
- GI50 [17]: 33 µM (inactive)
- GI50 [18]: 39 µM (inactive)
- GI50 [19]: 45.5 µM (inactive)
- GI50 [20]: 39.6 µM (inactive)
- GI50 [21]: 18.5 µM (inactive)
- GI50 [22]: 28.5 µM (inactive)
- GI50 [23]: 22.6 µM (inactive)
- GI50 [50]: 57.8 µM (inactive)
- GI50 [26]: > 100 µM (inactive)
- GI50 [51]: 26.4 µM (inactive)
- GI50 [27]: 33 µM (inactive)
- GI50 [59]: 18.7 µM (inactive)
- GI50 [28]: 28.4 µM (inactive)
- GI50 [29]: 22.5 µM
- GI50 [53]: 41 µM (inactive)
- GI50 [31]: 57 µM (inactive)
- GI50 [60]: 27.7 µM (inactive)
- GI50 [32]: 44.7 µM (inactive)
- GI50 [54]: 23.1 µM (inactive)
- GI50 [33]: 15.7 µM (inactive)
- GI50 [34]: 48.9 µM (inactive)
- GI50 [35]: 17.5 µM (inactive)
- GI50 [36]: > 100 µM (inactive)
- GI50 [37]: 32.1 µM (inactive)
- GI50 [38]: 18.1 µM (inactive)
- GI50 [39]: 23.6 µM (inactive)
- GI50 [55]: 43.1 µM (inactive)
- GI50 [56]: > 100 µM (inactive)
- GI50 [40]: 3.03 µM (inactive)
- GI50 [41]: 21.8 µM (inactive)
- GI50 [43]: 64 µM (inactive)
- GI50 [44]: 31.3 µM (inactive)
- GI50 [58]: 48.3 µM (inactive)
- GI50 [45]: > 100 µM (inactive)
